We go through 54 compounds from patent publication US7446079B2, “Perfumes for rinse-off systems” (Givaudan Fragrances Corporation, priority 2005, dated 2008).

The conditions of data set [1]: in water, cited from earlier work; for exp ODT (ppb) water: experimental values from the Booleans database.
Data set [2] in a line: GC-MS headspace release profile of Tropical Fruit perfume in shampoo, 1/100 dilution in water. In kind it is physicochemical. As for the experimental part:
A 10 gram sample of formulation and fragrance was added to an empty 1000 ml pyrex beaker. This beaker was then filled with 1000 ml of 120 F tap water. Beaker with diluted shampoo sample was then immediately placed into a semi-enclosed plexiglass chamber.
Headspace Sampling: Once beaker was placed into chamber a Carboxan SPME field fiber was held at the top-side opening of the chamber over the beaker containing the sample. […] […] Top of plexiglass chamber was held open for entire 5 minutes of headspace sampling.

Where “and” joins values, the source holds several entries; their conditions need not be identical. Equal entries are not always repeated. Where two headings read alike, the source gives them in different places.

For `CC(C=O)Cc1ccc(C(C)(C)C)cc1` (stereo not shown) [LILIAL], the “ODT (ppb)” value in data set [1] (Table 9), in data set [1] (Table 11) and in data set [1] (Table 13) was “less than 50 ppb” throughout.

Take `CC(C)=CCCC(C)C=O` (stereo not shown) [melonal, 2,6-Dimethyl-5-heptenal]: the “exp ODT (ppb) water” value in data set [1] was 16 ppb.

For `C=CCOC(=O)CCCCC` [ALLYL CAPROATE], the “ODT (ppb)” value in data set [1] (Table 9), in data set [1] (Table 11) and in data set [1] (Table 13) was “less than 50 ppb” in each case.

As for `CC(=O)C=CC1=C(C)CCCC1(C)C` [IONONE BETA PURE, 4-(2,6,6-Trimethyl-1-cyclohexen-1-yl)-3-buten-2-one], the “ODT (ppb)” value in data set [1] (Table 9), in data set [1] (Table 11) and in data set [1] (Table 13) was “less than 50 ppb” each time. Further, the “exp ODT (ppb) water” value in data set [1] is reported as 4-6 ppb. The “GC Abundance” value was 2000 in data set [2] (headspace at 30 seconds), 10000 in data set [2] (headspace at 40 seconds) and 18000 in data set [2] (headspace at 50 seconds).

On to `C=CCOC(=O)COC1CCCCC1` [CYCLOGALBANATE], for which the “ODT (ppb)” value in data set [1] (Table 9), in data set [1] (Table 11) and in data set [1] (Table 13) was “less than 50 ppb” in each case.

As for `O=C1CCCCCCCCCCCCCCO1` [EXALTOLIDE TOTAL], the “GC Abundance” value in data set [2] (headspace at 50 seconds) was 50.

In the case of `CC(C)c1cccc(C(C)CC=O)c1` (stereo not shown) [FLORHYDRAL], the “GC Abundance” value in data set [2] (headspace at 40 seconds) was found to be 9000; in data set [2] (headspace at 50 seconds), 10000.

As to `Cc1ccc2c(c1)OCC(=O)CO2` [CALONE], in data set [2] (headspace at 50 seconds), the “GC Abundance” value is 1000.

As for `C=C(C)[C@H]1CC=C(C)CC1` [d-LIMONENE, d-1-Methyl-4-isopropenyl-1-cyclohexene], the “GC Abundance” value in data set [2] (headspace at 5 seconds, Tropical Fruit perfume 1% in shampoo) was 7000; in data set [2] (headspace at 10 seconds), 7000; in data set [2] (headspace at 20 seconds), 7000; in data set [2] (headspace at 30 seconds) it was 7000; in data set [2] (headspace at 40 seconds) it was 5000; in data set [2] (headspace at 50 seconds) it was 4000.

On to `CCCCCCCC=O` [1-Octanal], for which the “exp ODT (ppb) water” value in data set [1] was 30 ppb.

Regarding `CCCCCCOC(C)=O` [HEXYL ACETATE], the “ODT (ppb)” value in data set [1] (Table 9), in data set [1] (Table 11) and in data set [1] (Table 13) was “less than 50 ppb” in each case.

With `COc1cc(C=O)ccc1O` [4-Hydroxy-3-methoxybenzaldehyde], in data set [1], the “exp ODT (ppb) water” value was 25-58 ppb and 20-200 ppb.

For the compound `CC1=CCC(/C=C\C(C)C(C)O)C1(C)C` (stereo not shown) [EBANOL], the “ODT (ppb)” value in data set [1] (Table 9), in data set [1] (Table 11) and in data set [1] (Table 13) was “less than 50 ppb” in each case.

Consider `CC1(C)CCC[C@]2(C)[C@H]3CCO[C@]3(C)CC[C@@H]12` [AMBROXAN], for which the “GC Abundance” value in data set [2] (headspace at 50 seconds) was found to be 1000.

As to `CCCCCOC(=O)CCC` [Pentyl butyrate], the “exp ODT (ppb) water” value in data set [1] is reported as 44-87 ppb.

As to `CC(=O)C=CC1C(C)=CCCC1(C)C` (stereo not drawn) [alpha ionone, 4-(2,2,6-Trimethyl-2-cyclohexen-1-yl)-3-buten-2-one], in data set [1], the “exp ODT (ppb) water” value is 0.4-10 ppb.

Take `COC(=O)c1c(C)cc(O)c(C)c1O` [METHYL ATRATATE]: in data set [2] (headspace at 50 seconds), the “GC Abundance” value is 50.

As to `CC(C)=CCCC(C)CCO` (stereo not shown) [CITRONELLOL AJ, FCC, CITRONELLOL], the “GC Abundance” value in data set [2] (headspace at 20 seconds), in data set [2] (headspace at 30 seconds), in data set [2] (headspace at 40 seconds) and in data set [2] (headspace at 50 seconds) was 7000 each time.

As for `CC1=CCC(CCC(C)C(C)O)C1(C)C` (stereo not shown) [SANDALORE], the “GC Abundance” value in data set [2] (headspace at 50 seconds) was 2000.

For `CC(=O)OCc1ccccc1` [BENZYL ACETATE], the “GC Abundance” value in data set [2] (headspace at 20 seconds) worked out at 12000; in data set [2] (headspace at 30 seconds) it was 17000; in data set [2] (headspace at 40 seconds), 18000; in data set [2] (headspace at 50 seconds), 18000.

For `CC1OC(C)C2Cc3ccccc3C2O1` (stereo not shown) [MAGNOLAN/CORPS 719], the “GC Abundance” value in data set [2] (headspace at 40 seconds) was found to be 1000; in data set [2] (headspace at 50 seconds) it was 3000.

Regarding `CC(C)CC1CC(C)(O)CCO1` (stereo not shown) [FLOROL], the “GC Abundance” value in data set [2] (headspace at 40 seconds) is 10000; in data set [2] (headspace at 50 seconds), 15000.

In the case of `OCc1ccccc1` [BENZYL ALCOHOL], the entries for the “GC Abundance” value in data set [2] (headspace at 40 seconds) and in data set [2] (headspace at 50 seconds) were 50 and 100, respectively.

For the compound `CCC(=O)OC/C=C(\C)CCC=C(C)C` [trans-3,7-Dimethyl-2,6-octadien-1-yl propanoate], the “exp ODT (ppb) water” value in data set [1] is 10 ppb.

Take OXANONE CRYSTALS: the “GC Abundance” value in data set [2] (headspace at 50 seconds) was determined as 70.

With `C=CCOC(=O)CCCCCC` [ALLYL HEPTOATE], the “GC Abundance” value in data set [2] (headspace at 20 seconds) is reported as 4000; in data set [2] (headspace at 30 seconds), 10000; in data set [2] (headspace at 40 seconds), 12000; in data set [2] (headspace at 50 seconds) it was 12000.

Take `CC(=O)OC/C=C(/C)CCC=C(C)C` [NERYL ACETATE]: the “ODT (ppb)” value in data set [1] (Table 9), in data set [1] (Table 11) and in data set [1] (Table 13) was “less than 50 ppb” in each case.

On to `C=CC(C)CCCC(C)(C)O` (stereo not shown) [DIHYDROMYRCENOL], for which the “GC Abundance” value in data set [2] (headspace at 10 seconds) is 500; in data set [2] (headspace at 20 seconds), 15000; in data set [2] (headspace at 30 seconds), 15000; in data set [2] (headspace at 40 seconds), 15000; in data set [2] (headspace at 50 seconds), 15000.

Take `CC(=O)OC(C)(C)Cc1ccccc1` [DIMETHYL BENZYL CARBINYL ACETATE]: the entries for the “GC Abundance” value in data set [2] (headspace at 30 seconds), in data set [2] (headspace at 40 seconds) and in data set [2] (headspace at 50 seconds) were 2000, 8000 and 8000, respectively.

Consider `CCCCCOC(C)=O` [Pentyl Acetate], for which the “exp ODT (ppb) water” value in data set [1] is 43 ppb.

For the compound `CC/C(=C\CC1CC=C(C)C1(C)C)CO` (stereo not shown) [BACDANOL], the “GC Abundance” value came out at 100 in data set [2] (headspace at 40 seconds) and 5000 in data set [2] (headspace at 50 seconds).

Consider `CCC(=O)OCc1ccccc1` [BENZYL PROPIONATE], for which the “GC Abundance” value in data set [2] (headspace at 20 seconds) was determined as 2000; in data set [2] (headspace at 30 seconds), 6000; in data set [2] (headspace at 40 seconds), 6000; in data set [2] (headspace at 50 seconds) it was 6000.

As to `CC(C)=CCCC(C)CC#N` (stereo not shown) [CITRONELLYL NITRILE], the “ODT (ppb)” value in data set [1] (Table 9), in data set [1] (Table 11) and in data set [1] (Table 13) was “less than 50 ppb” throughout.

Regarding VERTOFIX COEUR, the “GC Abundance” value in data set [2] (headspace at 50 seconds) was 50.

In the case of `CC(C=O)Cc1ccc2c(c1)OCO2` (stereo not shown) [HELIONAL], the “GC Abundance” value in data set [2] (headspace at 40 seconds) is 500; in data set [2] (headspace at 50 seconds), 5000.

With `CCC(C)(O)CCC=C(C)C` (stereo not shown) [DIHYDROLINALOOL], the “GC Abundance” value in data set [2] (headspace at 20 seconds), in data set [2] (headspace at 30 seconds), in data set [2] (headspace at 40 seconds) and in data set [2] (headspace at 50 seconds) was 3000 throughout.

Turning to `CCOC(=O)CC(C)=O` [ETHYL ACETOACETATE], the “ODT (ppb)” value in data set [1] (Table 9), in data set [1] (Table 11) and in data set [1] (Table 13) was “less than 50 ppb” in each case.

Take `CC(C)C(=O)OCCOc1ccccc1` [PHENOXY ETHYL ISOBUTYRATE]: the “ODT (ppb)” value in data set [1] (Table 9), in data set [1] (Table 11) and in data set [1] (Table 13) was “less than 50 ppb” each time.

As to `CC/C=C\CCO` [CIS-3-HEXEN-1-OL], the “GC Abundance” value in data set [2] (headspace at 20 seconds), in data set [2] (headspace at 30 seconds), in data set [2] (headspace at 40 seconds) and in data set [2] (headspace at 50 seconds) was 14000 throughout.

As for `Cc1ccc(C(C)C)c(O)c1` [5-Methyl-2-isopropylphenol], in data set [1], the “exp ODT (ppb) water” value was 400 ppb.

For `CC(C)(O)CCCC1=CCC(C=O)CC1` (stereo not shown) [LYRAL], the “ODT (ppb)” value in data set [1] (Table 13) is given as “less than 50 ppb”.

Turning to `CC(=O)OC1CCC(C(C)(C)C)CC1` (stereo not shown) [VERTENEX HC], the entries for the “GC Abundance” value in data set [2] (headspace at 30 seconds), in data set [2] (headspace at 40 seconds) and in data set [2] (headspace at 50 seconds) were 2000, 8000 and 10000, respectively.

With `CCCCCC1CCC(=O)O1` (stereo not shown) [ALDEHYDE C-18], the “GC Abundance” value in data set [2] (headspace at 20 seconds) is listed as 2000; in data set [2] (headspace at 30 seconds), 2000; in data set [2] (headspace at 40 seconds), 4000; in data set [2] (headspace at 50 seconds), 4000.

In the case of `CCCCOC(C)=O` [Butyl acetate], in data set [1], the “exp ODT (ppb) water” value is 44-88 ppb.

Regarding `CCC=C(C)C(O)CCCCC` (stereo not shown) [UNDECAVERTOL, 4-Methyl-3-decen-5-ol], the “GC Abundance” value in data set [2] (headspace at 40 seconds) and in data set [2] (headspace at 50 seconds) was 10000 each time.

Take `CCOC(=O)C1OC1(C)c1ccccc1` (stereo not shown) [Ethyl 2,3-epoxy-3-methyl-3-phenylpropionate]: the “exp ODT (ppb) water” value in data set [1] is listed as 25 ppb.

Turning to `CC=Cc1ccc(O)c(OC)c1` [1-Hydroxy-2-methoxy-4-propenylbenzene], the “exp ODT (ppb) water” value in data set [1] is recorded as 30-40 ppb.

Regarding `CC/C=C\CCOC(=O)OC` [LIFFAROME], the “GC Abundance” value in data set [2] (headspace at 20 seconds), in data set [2] (headspace at 30 seconds), in data set [2] (headspace at 40 seconds) and in data set [2] (headspace at 50 seconds) was 3000 each time.

Take `C=C(C)C1CC=C(C)C(=O)C1` (stereo not shown) [I-1-Methyl-4-isopropenyl-6-cyclohexen-2-one]: the “exp ODT (ppb) water” value in data set [1] is reported as 50 ppb.

Take `CC(=O)OC(C)(C)C1CC=C(C)CC1` (stereo not shown) [TERPINYL ACETATE]: the “GC Abundance” value stood at 1000 in data set [2] (headspace at 30 seconds), 9000 in data set [2] (headspace at 40 seconds) and 9000 in data set [2] (headspace at 50 seconds).

As to `CC/C=C\CCOC(=O)c1ccccc1O` [CIS-3-HEXENYL SALICYLATE], the “ODT (ppb)” value in data set [1] (Table 9), in data set [1] (Table 11) and in data set [1] (Table 13) was “less than 50 ppb” each time.

Consider `C=CC(C)(O)CCC=C(C)CC` (mixture of isomers) [ETHYL LINALOOL], for which the “GC Abundance” value was 5000 in data set [2] (headspace at 20 seconds), 10000 in data set [2] (headspace at 30 seconds), 10000 in data set [2] (headspace at 40 seconds) and 10000 in data set [2] (headspace at 50 seconds).

Take `O=C1CCCCCCCCCCCC(=O)OCCO1` [ETHYLENE BRASSYLATE]: in data set [2] (headspace at 50 seconds), the “GC Abundance” value came to 20.

For the compound `CC(C)=CCCC(C)CCCC(C)C=O` (stereo not shown) [ADOXAL, 2,6,10-Trimethyl-9-undecenal], the “GC Abundance” value in data set [2] (headspace at 40 seconds) worked out at 300; in data set [2] (headspace at 50 seconds) it was 3000.
